Test results as given in US20230085307A1, “PYRIDAZINONE COMPOUND AND HERBICIDE” (NISSAN CHEMICAL CORPORATION, priority 2019, published 2023).

What was measured:
[1] = test system: redroot pigweed; assay: Test Example 5: herbicidal effect by foliage application, plastic box (Table 20, symbol N); format: in vivo, redroot pigweed (Amaranthus retroflexus); details: foliage application, 320 g/ha, evaluated three weeks after application
Summary of the method: (§1)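 Foliar spray test: emulsion formulation diluted in water to a set application rate, sprayed onto 14-day-old plants raised in diluvial soil at 25° C to 30° C under glass. Both herbicidal effect and crop effect rated visually three weeks later.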

[2] = test system: chickweed; assay: Test Example 4: herbicidal effect by soil treatment (Table 19, symbol P); format: in vivo, common chickweed (Stellaria media); details: amount of applied herbicide 320 g/ha
Summary of the method: (§2)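 Step 1: sow seeds in sterilized diluvial soil, cover ~1.5 cm. Step 2: spray diluted emulsion onto soil surface at predetermined rate. Step 3: greenhouse, 25–30° C, three weeks. Step 4: grade effect on each plant by earlier criteria.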

[3] = test system: lambsquarters; assay: Test Example 5: herbicidal effect by foliage application, plastic box (Table 20, symbol O); format: in vivo, lambsquarters (Chenopodium album); details: foliage application, 320 g/ha, evaluated three weeks after application
Summary of the method: as §1

[4] = test system: blackgrass; assay: Test Example 5: herbicidal effect by foliage application, plastic box (Table 20, symbol J); format: in vivo, blackgrass (Alopecurus myosuroides); details: foliage application, 320 g/ha, evaluated three weeks after application
Summary of the method: as §1

[5] = test system: barnyard grass; assay: Test Example 5: herbicidal effect by foliage application, plastic box (Table 20, symbol H); format: in vivo, barnyard grass (Echinochloa crus-galli); details: foliage application, 320 g/ha, evaluated three weeks after application
Summary of the method: as §1

[6] = test system: Chinese sprangletop; assay: Test Example 3: herbicidal effect by foliage application, Wagner pot (Table 18, symbol D); format: in vivo, chinese sprangletop (Leptochloa chinensis); details: amount of applied herbicide 320 g/ha
Summary of the method: (§3)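 Plants were sown in alluvial soil held under 0.1–0.5 cm standing water and grown 14 days in a greenhouse at 25–30 °C. An emulsifiable formulation, water-diluted to the set dose, was then sprayed onto the foliage, and effects were scored three weeks later using previously defined criteria.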

[7] = test system: green foxtail; assay: Test Example 5: herbicidal effect by foliage application, plastic box (Table 20, symbol G); format: in vivo, green foxtail (Setaria viridis); details: foliage application, 320 g/ha, evaluated three weeks after application
Summary of the method: as §1

[8] = test system: blackgrass; assay: Test Example 4: herbicidal effect by soil treatment (Table 19, symbol J); format: in vivo, blackgrass (Alopecurus myosuroides); details: amount of applied herbicide 320 g/ha
Summary of the method: as §2

[9] = test system: green foxtail; assay: Test Example 4: herbicidal effect by soil treatment (Table 19, symbol G); format: in vivo, green foxtail (Setaria viridis); details: amount of applied herbicide 320 g/ha
Summary of the method: as §2

[10] = test system: lambsquarters; assay: Test Example 4: herbicidal effect by soil treatment (Table 19, symbol O); format: in vivo, lambsquarters (Chenopodium album); details: amount of applied herbicide 320 g/ha
Summary of the method: as §2

[11] = test system: wild oat; assay: Test Example 5: herbicidal effect by foliage application, plastic box (Table 20, symbol I); format: in vivo, wild oat (Avena fatua); details: foliage application, 320 g/ha, evaluated three weeks after application
Summary of the method: as §1

[12] = test system: persian speedwell; assay: Test Example 5: herbicidal effect by foliage application, plastic box (Table 20, symbol R); format: in vivo, Persian speedwell (Veronica persica); details: foliage application, 320 g/ha, evaluated three weeks after application
Summary of the method: as §1

[13] = test system: wild oat; assay: Test Example 4: herbicidal effect by soil treatment (Table 19, symbol I); format: in vivo, wild oat (Avena fatua); details: amount of applied herbicide 320 g/ha
Summary of the method: as §2

[14] = test system: southern crabgrass; assay: Test Example 5: herbicidal effect by foliage application, plastic box (Table 20, symbol F); format: in vivo, southern crabgrass (Digitaria ciliaris); details: foliage application, 320 g/ha, evaluated three weeks after application
Summary of the method: as §1

[15] = test system: velvetleaf; assay: Test Example 5: herbicidal effect by foliage application, plastic box (Table 20, symbol M); format: in vivo, velvetleaf (Abutilon theophrasti); details: foliage application, 320 g/ha, evaluated three weeks after application
Summary of the method: as §1

[16] = test system: windgrass; assay: Test Example 4: herbicidal effect by soil treatment (Table 19, symbol L); format: in vivo, windgrass (Apera spica-venti); details: amount of applied herbicide 320 g/ha
Summary of the method: as §2

[17] = test system: redroot pigweed; assay: Test Example 4: herbicidal effect by soil treatment (Table 19, symbol N); format: in vivo, redroot pigweed (Amaranthus retroflexus); details: amount of applied herbicide 320 g/ha
Summary of the method: as §2

[18] = test system: rice flat sedge; assay: Test Example 3: herbicidal effect by foliage application, Wagner pot (Table 18, symbol E); format: in vivo, rice flat sedge (Cyperus iria); details: amount of applied herbicide 320 g/ha
Summary of the method: as §3

[19] = test system: chickweed; assay: Test Example 5: herbicidal effect by foliage application, plastic box (Table 20, symbol P); format: in vivo, common chickweed (Stellaria media); details: foliage application, 320 g/ha, evaluated three weeks after application
Summary of the method: as §1

[20] = test system: barnyard grass; assay: Test Example 3: herbicidal effect by foliage application, Wagner pot (Table 18, symbol H); format: in vivo, barnyard grass (Echinochloa crus-galli); details: amount of applied herbicide 320 g/ha
Summary of the method: as §3

[21] = test system: Italian ryegrass; assay: Test Example 5: herbicidal effect by foliage application, plastic box (Table 20, symbol K); format: in vivo, Italian ryegrass (Lolium multiflorum); details: foliage application, 320 g/ha, evaluated three weeks after application
Summary of the method: as §1

[22] = test system: windgrass; assay: Test Example 5: herbicidal effect by foliage application, plastic box (Table 20, symbol L); format: in vivo, windgrass (Apera spica-venti); details: foliage application, 320 g/ha, evaluated three weeks after application
Summary of the method: as §1

[23] = test system: southern crabgrass; assay: Test Example 4: herbicidal effect by soil treatment (Table 19, symbol F); format: in vivo, southern crabgrass (Digitaria ciliaris); details: amount of applied herbicide 320 g/ha
Summary of the method: as §2

[24] = test system: persian speedwell; assay: Test Example 4: herbicidal effect by soil treatment (Table 19, symbol R); format: in vivo, Persian speedwell (Veronica persica); details: amount of applied herbicide 320 g/ha
Summary of the method: as §2

[25] = test system: Italian ryegrass; assay: Test Example 4: herbicidal effect by soil treatment (Table 19, symbol K); format: in vivo, Italian ryegrass (Lolium multiflorum); details: amount of applied herbicide 320 g/ha
Summary of the method: as §2

[26] = test system: velvetleaf; assay: Test Example 4: herbicidal effect by soil treatment (Table 19, symbol M); format: in vivo, velvetleaf (Abutilon theophrasti); details: amount of applied herbicide 320 g/ha
Summary of the method: as §2

[27] = test system: barnyard grass; assay: Test Example 4: herbicidal effect by soil treatment (Table 19, symbol H); format: in vivo, barnyard grass (Echinochloa crus-galli); details: amount of applied herbicide 320 g/ha
Summary of the method: as §2

COc1cc(F)ccc1-c1sc2ccc(C(C)=O)cc2c1-c1c(O)c(C)nn(C)c1=O [2-192]
herbicidal effect on N: redroot pigweed (criteria 0-5) [1]: 3 (Herbicidal rate of 40% or more and less than 70%) | P: chickweed, herbicidal effect rating [2]: 0 (Herbicidal rate of 5% or less (almost no effect)) | herbicidal effect on O: lambsquarters (criteria 0-5) [3]: 3 (Herbicidal rate of 40% or more and less than 70%) | herbicidal effect on J: blackgrass (criteria 0-5) [4]: 4 (Herbicidal rate of 70% or more and less than 90%) | herbicidal effect on H: barnyard grass (criteria 0-5) [5]: 2 (Herbicidal rate of 20% or more and less than 40%) | herbicidal effect on D: Chinese sprangletop [6]: 2 (Herbicidal rate of 20% or more and less than 40%) | herbicidal effect on G: green foxtail (criteria 0-5) [7]: 4 (Herbicidal rate of 70% or more and less than 90%) | J: blackgrass, herbicidal effect rating [8]: 0 (Herbicidal rate of 5% or less (almost no effect)) | G: green foxtail, herbicidal effect rating [9]: 3 (Herbicidal rate of 40% or more and less than 70%) | O: lambsquarters, herbicidal effect rating [10]: 4 (Herbicidal rate of 70% or more and less than 90%) | herbicidal effect on I: wild oat (criteria 0-5) [11]: 0 (Herbicidal rate of 5% or less (almost no effect)) | herbicidal effect on R: persian speedwell (criteria 0-5) [12]: 5 (Herbicidal rate of 90% or more (almost completely withered)) | I: wild oat, herbicidal effect rating [13]: 0 (Herbicidal rate of 5% or less (almost no effect)) | herbicidal effect on F: southern crabgrass (criteria 0-5) [14]: 4 (Herbicidal rate of 70% or more and less than 90%) | herbicidal effect on M: velvetleaf (criteria 0-5) [15]: 4 (Herbicidal rate of 70% or more and less than 90%) | L: windgrass, herbicidal effect rating [16]: 0 (Herbicidal rate of 5% or less (almost no effect)) | N: redroot pigweed, herbicidal effect rating [17]: 4 (Herbicidal rate of 70% or more and less than 90%) | herbicidal effect on E: rice flat sedge [18]: 2 (Herbicidal rate of 20% or more and less than 40%) | herbicidal effect on P: chickweed (criteria 0-5) [19]: 5 (Herbicidal rate of 90% or more (almost completely withered)) | herbicidal effect on H: barnyard grass [20]: 4 (Herbicidal rate of 70% or more and less than 90%) | herbicidal effect on K: Italian ryegrass (criteria 0-5) [21]: 0 (Herbicidal rate of 5% or less (almost no effect)) | herbicidal effect on L: windgrass (criteria 0-5) [22]: 0 (Herbicidal rate of 5% or less (almost no effect)) | F: southern crabgrass, herbicidal effect rating [23]: 0 (Herbicidal rate of 5% or less (almost no effect)) | R: persian speedwell, herbicidal effect rating [24]: 0 (Herbicidal rate of 5% or less (almost no effect)) | K: Italian ryegrass, herbicidal effect rating [25]: 0 (Herbicidal rate of 5% or less (almost no effect)) | M: velvetleaf, herbicidal effect rating [26]: 0 (Herbicidal rate of 5% or less (almost no effect)) | H: barnyard grass, herbicidal effect rating [27]: 1 (Herbicidal rate of 5% or more and less than 20%)
